For this assay, the target named is T1, CCDC6-RET (Homo sapiens, UniProt P07949+Q16204+Q96SW2).
T1 construct: CCDC6 (natural N-terminal fusion partner, UniProt Q16204); endogenous in cells; host or cells: TPC-1 (parental, papillary thyroid carcinoma)
Briefly: Cellular RET degradation, AlphaLISA, TPC-1 cell line. Format: cell-based. As to conditions: for Dmax: TPC1, human, 24 h, read-out: Cell Density TPC-1/CCDC6-RET Ymax %; for DC50: read-out: Cell Density TPC-1/CCDC6-RET DC50, half-maximal degradation concentration, TPC-1 (CCDC6-RET), 24 hrs. On the procedure: Cellular RET degradation compound potency was determined using the bead-based luminescent amplification assay-AlphaLISA Surefire Ultra Detection Kit (Perkin-Elmer). The CCDC6-RET fusion expressing papillary thyroid carcinoma (TPC-1) cell line was selected for screening of potential degraders: Parental (TPC-1/CCDC6-RET). Cells were plated in 384 well culture plates (Greiner Bio-One) at 10,000 cells/well in 50 ul/well DMEM (Fisher Scientific) with 2% FBS serum (Gibco). […] Low normalization wells were media only and high normalization wells were cells treated with DMSO only. Treated cell plates were placed in an incubator at 37 °C and 5% CO2 for 24 hrs. At 24 hrs, cell media was removed by a FELIX automated liquid hander (Analytik Jena) and 25 ul of cell lysis buffer (provided in AlphaLisa kit) was added to each well. […] cell lysate were transferred into a 384-well microplate (Perkin Elmer) before addition of 2.5 ul AlphaLISA Acceptor Bead mix. The plates were sealed and kept at room temperature for 1 hr before addition of donor bead mixture. Donor bead addition was performed in the dark and incubated for >1 hr before AlphaLISA luminescence was measured on an Envision plate reader with an Alphascreen aperture at RT (excitation 680 nm, emission 615 nm). RET protein abundance (and therefore degradation) directly corresponds to luminescence intensity.
Intensities were normalized relative to the average values from 16 wells containing media alone (blank-low) and 16 wells containing cells +DMSO (high). % Degradation for each well was determined using the standard equation, where
DC50 (IC50) values for each compound tested are calculated by analyzing plots of % degradation versus compound concentration, and fitting to the standard 4-parameter logistic curve where,
DC50 values are calculated according to the relationship,
Compound replicates were performed in independent assays. Maximum degradation (YMax) was defined as the maximal % degradation value from the 4-parameter logistic equation, as previously described.
On the technique in general: Alpha assays give light when donor and acceptor beads are brought close together.

Each structure is given as a SMILES string. Some results are limits rather than exact numbers.

T1 sequence (Q16204+P07949 fused): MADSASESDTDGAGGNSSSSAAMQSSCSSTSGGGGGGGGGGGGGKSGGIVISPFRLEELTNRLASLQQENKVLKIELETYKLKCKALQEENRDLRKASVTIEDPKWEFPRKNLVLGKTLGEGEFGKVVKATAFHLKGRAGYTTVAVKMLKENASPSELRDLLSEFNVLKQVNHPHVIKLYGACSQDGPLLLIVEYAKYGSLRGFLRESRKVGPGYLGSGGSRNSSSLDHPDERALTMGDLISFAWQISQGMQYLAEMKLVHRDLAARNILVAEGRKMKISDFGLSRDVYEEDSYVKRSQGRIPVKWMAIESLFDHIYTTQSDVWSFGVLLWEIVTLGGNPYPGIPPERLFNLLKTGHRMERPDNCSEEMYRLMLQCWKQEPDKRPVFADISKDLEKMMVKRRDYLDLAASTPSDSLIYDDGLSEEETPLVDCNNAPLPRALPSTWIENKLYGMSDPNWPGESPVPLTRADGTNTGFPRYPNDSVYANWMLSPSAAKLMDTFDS
T1 sequence (Q96SW2 whole entry, the tested form may be a part): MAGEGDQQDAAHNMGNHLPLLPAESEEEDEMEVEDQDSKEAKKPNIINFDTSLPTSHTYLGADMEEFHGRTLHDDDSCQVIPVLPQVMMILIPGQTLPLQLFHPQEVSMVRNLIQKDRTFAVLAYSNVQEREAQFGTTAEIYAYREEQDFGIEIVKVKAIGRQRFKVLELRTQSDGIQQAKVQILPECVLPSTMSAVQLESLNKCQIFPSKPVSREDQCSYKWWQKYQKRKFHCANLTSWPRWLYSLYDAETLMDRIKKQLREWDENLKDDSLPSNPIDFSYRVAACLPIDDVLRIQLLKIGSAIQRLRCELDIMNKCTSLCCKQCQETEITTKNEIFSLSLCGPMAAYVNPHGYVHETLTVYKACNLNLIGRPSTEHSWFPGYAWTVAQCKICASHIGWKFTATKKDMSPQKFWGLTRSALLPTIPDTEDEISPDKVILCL
T1 sequence (Q16531 whole entry partner, the tested form may be a part): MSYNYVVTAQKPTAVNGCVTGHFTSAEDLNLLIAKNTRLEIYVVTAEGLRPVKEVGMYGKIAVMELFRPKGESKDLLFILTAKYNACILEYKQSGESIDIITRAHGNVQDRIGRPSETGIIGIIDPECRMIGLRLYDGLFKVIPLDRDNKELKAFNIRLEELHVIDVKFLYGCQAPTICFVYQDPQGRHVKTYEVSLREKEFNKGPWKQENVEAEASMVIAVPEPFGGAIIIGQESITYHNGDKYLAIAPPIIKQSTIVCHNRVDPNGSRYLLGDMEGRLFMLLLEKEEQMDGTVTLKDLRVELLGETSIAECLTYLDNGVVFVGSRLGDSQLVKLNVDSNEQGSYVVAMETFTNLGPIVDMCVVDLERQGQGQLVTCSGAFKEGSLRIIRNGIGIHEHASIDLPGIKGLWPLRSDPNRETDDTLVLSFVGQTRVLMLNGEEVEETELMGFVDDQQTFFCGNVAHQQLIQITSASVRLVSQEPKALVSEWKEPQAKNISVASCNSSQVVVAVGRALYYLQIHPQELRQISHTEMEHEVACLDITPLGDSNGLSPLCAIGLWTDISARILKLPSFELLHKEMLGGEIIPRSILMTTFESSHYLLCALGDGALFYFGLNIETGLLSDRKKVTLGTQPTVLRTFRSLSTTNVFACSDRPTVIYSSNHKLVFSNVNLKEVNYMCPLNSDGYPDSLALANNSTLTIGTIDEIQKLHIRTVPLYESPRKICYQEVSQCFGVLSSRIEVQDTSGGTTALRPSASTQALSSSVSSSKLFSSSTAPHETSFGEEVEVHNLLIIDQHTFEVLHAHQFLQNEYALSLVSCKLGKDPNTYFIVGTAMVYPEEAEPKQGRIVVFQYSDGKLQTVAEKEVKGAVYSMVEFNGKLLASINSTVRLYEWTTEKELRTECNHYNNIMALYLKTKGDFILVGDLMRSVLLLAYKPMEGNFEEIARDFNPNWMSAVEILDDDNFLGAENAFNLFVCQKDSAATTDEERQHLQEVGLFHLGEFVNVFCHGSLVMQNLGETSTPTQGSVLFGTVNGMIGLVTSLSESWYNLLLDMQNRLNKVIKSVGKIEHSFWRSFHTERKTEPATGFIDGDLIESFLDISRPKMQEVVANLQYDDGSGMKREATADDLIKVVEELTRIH

Regarding `CCOc1cc(-c2ccc(N3CCC(CN4CCN(C(=O)CCCN5CCN(c6ccc7c(N8CCC(=O)NC8=O)nn(C)c7c6)CC5)CC4)(NC(=O)c4cc(F)ccc4F)CC3)nc2)c2c(C#N)cnn2c1` [Example 43, N-(1-(5-(3-cyano-6-ethoxypyrazolo[1,5-a]pyridin-4-yl)pyridin-2-yl)-4-((4-(4-(4-(3-(2,4-dioxotetrahydropyrimidin-1(2H)-yl)-1-methyl-1H-indazol-6-yl)piperazin-1-yl)butanoyl)piperazin-1-yl)methyl)piperidin-4-yl)-2,5-difluorobenzamide], the Dmax was greater than 90% and the DC50 was less than 2 nM.

Take `CCOc1cc(-c2ccc(N3CCC(CN4CCN(C(=O)CCCCNC(=O)COc5cccc6c5CN(C5CCC(=O)NC5=O)C6=O)CC4)(NC(=O)c4cc(F)ccc4F)CC3)nc2)c2c(C#N)cnn2c1` (stereo not shown) [Example 26, N-[1-(5-{3-cyano-6-ethoxypyrazolo[1,5-a]pyridin-4-yl}pyridin-2-yl)-4-({4-[5-(2-{[2-(2,6-dioxopiperidin-3-yl)-1-oxo-2,3-dihydro-1H-isoindol-4-yl]oxy}acetamido)pentanoyl]piperazin-1-yl}methyl)piperidin-4-yl]-2,5-difluorobenzamide]: the Dmax is greater than 90% and the DC50 lay within 2 to 10 nM.

With `CCOc1cc(-c2ccc(N3CCC(CN4CCN(C(=O)C5CC6(CC(C(=O)Nc7ccc8c(N9CCC(=O)NC9=O)nn(C)c8c7)C6)C5)CC4)(NC(=O)c4cc(F)ccc4F)CC3)nc2)c2c(C#N)cnn2c1` (stereo not shown) [Example 84, 6-(4-{[1-(5-{3-cyano-6-ethoxypyrazolo[1,5-a]pyridin-4-yl}pyridin-2-yl)-4-(2,5-difluorobenzamido)piperidin-4-yl]methyl}piperazine-1-carbonyl)-N-[3-(2,4-dioxo-1,3-diazinan-1-yl)-1-methyl-1H-indazol-6-yl]spiro[3.3]heptane-2-carboxamide], the Dmax is greater than 90% and the DC50 is less than 2 nM.

As to `CCOc1cc(-c2ccc(N3CCC(Cc4ccccc4)(NC(=O)N4CCN(C(=O)CCN5CCC(c6ccc7c(c6)C(=O)N(C6CCC(=O)NC6=O)C7)CC5)CC4)CC3)nc2)c2c(C#N)cnn2c1` (stereo not shown) [Example 51, N-[4-benzyl-1-[5-(3-cyano-6-ethoxy-pyrazolo[1,5-a]pyridin-4-yl)-2-pyridyl]-4-piperidyl]-4-[3-[4-[2-(2,6-dioxo-3-piperidyl)-3-oxo-isoindolin-5-yl]-1-piperidyl]propanoyl]piperazine-1-carboxamide], the Dmax fell in the range of 60 to 90% and the DC50 fell in the range of 10 to 100 nM.

Regarding `CCOc1cc(-c2ccc(N3CCC(CN(C(=O)CCCCN4CCN(c5ccc6c(c5)C(=O)N(C5CCC(=O)NC5=O)C6)CC4)C(C)C)(NC(=O)c4cc(F)ccc4F)CC3)nc2)c2c(C#N)cnn2c1` (stereo not shown) [Example 168, N-[1-(5-{3-cyano-6-ethoxypyrazolo[1,5-a]pyridin-4-yl}pyridin-2-yl)-4-[(5-{4-[2-(2,6-dioxopiperidin-3-yl)-3-oxo-2,3-dihydro-1H-isoindol-5-yl]piperazin-1-yl}-N-(propan-2-yl)pentanamido)methyl]piperidin-4-yl]-2,5-difluorobenzamide], the Dmax was greater than 90% and the DC50 was in the range of 2 to 10 nM.

As for `CCOc1cc(-c2ccc(N3CCC(CN4CCN(C(=O)CCN5CCN(c6ccc7c(c6)C(=O)N(C6CCC(=O)NC6=O)C7)CC5)CC4)(NC(=O)c4cc(F)ccc4F)CC3)nc2)c2c(C#N)cnn2c1` (stereo not shown) [Example 12, N-(1-(5-(3-cyano-6-ethoxypyrazolo[1,5-a]pyridin-4-yl)pyridin-2-yl)-4-((4-(3-(4-(2-(2,6-dioxopiperidin-3-yl)-3-oxoisoindolin-5-yl)piperazin-1-yl)propanoyl)piperazin-1-yl)methyl)piperidin-4-yl)-2,5-difluorobenzamide], the Dmax was greater than 90% and the DC50 was less than 2 nM.

Consider `CCOc1cc(-c2ccc(N3CCC(CN4CCN(CC5CCN(C(=O)c6ccc7c(c6)C(=O)N(C6CCC(=O)NC6=O)C7)CC5)CC4)(NC(=O)c4cc(F)ccc4F)CC3)nc2)c2c(C#N)cnn2c1` (stereo not shown) [Example 110, N-[1-(5-{3-cyano-6-ethoxypyrazolo[1,5-a]pyridin-4-yl}pyridin-2-yl)-4-{[4-({1-[2-(2,6-dioxopiperidin-3-yl)-3-oxo-2,3-dihydro-1H-isoindole-5-carbonyl]piperidin-4-yl}methyl)piperazin-1-yl]methyl}piperidin-4-yl]-2,5-difluorobenzamide], for which the Dmax lay in the range of 60 to 90% and the DC50 lay in the range of 2 to 10 nM.

Consider `CCOc1cc(-c2ccc(N3CCC(CN(C)C(=O)CCCCCCN4CCC(c5ccc6c(c5)CN(C5CCC(=O)NC5=O)C6=O)CC4)(NC(=O)c4cc(F)ccc4F)CC3)nc2)c2c(C#N)cnn2c1` (stereo not shown) [Example 140, N-[1-(5-{3-cyano-6-ethoxypyrazolo[1,5-a]pyridin-4-yl}pyridin-2-yl)-4-[(7-{4-[2-(2,6-dioxopiperidin-3-yl)-1-oxo-2,3-dihydro-1H-isoindol-5-yl]piperidin-1-yl}-N-methylheptanamido)methyl]piperidin-4-yl]-2,5-difluorobenzamide], for which the Dmax was greater than 90% and the DC50 is 2 to 10 nM.

With `CCOc1cc(-c2ccc(N3CCC(CN4CCN(CCOCCC(=O)N5CCC(c6ccc7c(c6)C(=O)N(C6CCC(=O)NC6=O)C7)CC5)CC4)(NC(=O)c4cc(F)ccc4F)CC3)nc2)c2c(C#N)cnn2c1` (stereo not shown) [Example 101, N-[1-(5-{3-cyano-6-ethoxypyrazolo[1,5-a]pyridin-4-yl}pyridin-2-yl)-4-({4-[2-(3-{4-[2-(2,6-dioxopiperidin-3-yl)-3-oxo-2,3-dihydro-1H-isoindol-5-yl]piperidin-1-yl}-3-oxopropoxy)ethyl]piperazin-1-yl}methyl)piperidin-4-yl]-2,5-difluorobenzamide], the Dmax is greater than 90% and the DC50 lay within 10 to 100 nM.

In the case of `CCOc1cc(-c2ccc(N3CCC(CN4CCN(C(=O)CCCCCCCCNc5ccc(C6CCC(=O)NC6=O)cc5)CC4)(NC(=O)c4cc(F)ccc4F)CC3)nc2)c2c(C#N)cnn2c1` (stereo not shown) [Example 21, N-[1-(5-{3-cyano-6-ethoxypyrazolo[1,5-a]pyridin-4-yl}pyridin-2-yl)-4-{[4-(9-{[4-(2,6-dioxopiperidin-3-yl)phenyl]amino}nonanoyl)piperazin-1-yl]methyl}piperidin-4-yl]-2,5-difluorobenzamide], the Dmax is 60 to 90% and the DC50 was 10 to 100 nM.

With `CCOc1cc(-c2ccc(N3CCC(COCCN4CCN(C(=O)CCN5CCN(c6ccc7c(c6)CN(C6CCC(=O)NC6=O)C7=O)CC5)CC4)(NC(=O)c4cc(F)ccc4F)CC3)nc2)c2c(C#N)cnn2c1` (stereo not shown) [Example 34, N-[1-[5-(3-cyano-6-ethoxy-pyrazolo[1,5-a]pyridin-4-yl)-2-pyridyl]-4-[2-[4-[3-[4-[2-(2,6-dioxo-3-piperidyl)-1-oxo-isoindolin-5-yl]piperazin-1-yl]propanoyl]piperazin-1-yl]ethoxymethyl]-4-piperidyl]-2,5-difluoro-benzamide], the Dmax is greater than 90% and the DC50 lay within 10 to 100 nM.

With `CCOc1cc(-c2ccc(N3CCC(CN4CCN(C(=O)CCCCCCNc5cccc(NC6CCC(=O)NC6=O)c5)CC4)(NC(=O)c4cc(F)ccc4F)CC3)nc2)c2c(C#N)cnn2c1` (stereo not shown) [Example 22, N-[1-(5-{3-cyano-6-ethoxypyrazolo[1,5-a]pyridin-4-yl}pyridin-2-yl)-4-({4-[7-({3-[(2,6-dioxopiperidin-3-yl)amino]phenyl}amino)heptanoyl]piperazin-1-yl}methyl)piperidin-4-yl]-2,5-difluorobenzamide], the Dmax lay within 60 to 90% and the DC50 was 10 to 100 nM.

Regarding `CCOc1cc(-c2ccc(N3CCC(CN4CCN(CCC(=O)N5CCC6(CC5)CCN(c5ccc7c(c5)CN(C5CCC(=O)NC5=O)C7=O)CC6)CC4)(NC(=O)c4cc(F)ccc4F)CC3)nc2)c2c(C#N)cnn2c1` (stereo not shown) [Example 90, N-[1-(5-{3-cyano-6-ethoxypyrazolo[1,5-a]pyridin-4-yl}pyridin-2-yl)-4-{[4-(3-{9-[2-(2,6-dioxopiperidin-3-yl)-1-oxo-2,3-dihydro-1H-isoindol-5-yl]-3,9-diazaspiro[5.5]undecan-3-yl}-3-oxopropyl)piperazin-1-yl]methyl}piperidin-4-yl]-2,5-difluorobenzamide], the Dmax is greater than 90% and the DC50 was in the range of 10 to 100 nM.

As for `CCOc1cc(-c2ccc(N3CCC(CN4CCN(C5CC6(CC(C(=O)N7CCC(c8ccc9c(c8)CN(C8CCC(=O)NC8=O)C9=O)CC7)C6)C5)CC4)(NC(=O)c4cc(F)ccc4F)CC3)nc2)c2c(C#N)cnn2c1` (stereo not shown) [Example 95, N-[1-(5-{3-cyano-6-ethoxypyrazolo[1,5-a]pyridin-4-yl}pyridin-2-yl)-4-{[4-(6-{4-[2-(2,6-dioxopiperidin-3-yl)-1-oxo-2,3-dihydro-1H-isoindol-5-yl]piperidine-1-carbonyl}spiro[3.3]heptan-2-yl)piperazin-1-yl]methyl}piperidin-4-yl]-2,5-difluorobenzamide], the Dmax was in the range of 60 to 90% and the DC50 was in the range of 2 to 10 nM.

The values above are taken from patent publication US20260356830A1, “COMPOUNDS FOR MODULATING RET PROTEIN” (Bristol-Myers Squibb Company, priority 2022, published 2026).
